# Values joined by “and” are separate entries in the source; they are usually repeats but may differ in a detail not shown here. Identical values can stand only once.
# How the values were obtained:
# Experiment in all cases: Caliper, Mobility shift assay off-chip
# ABL1 (human) = ABL1 (human) (UniProt P00519)
# [1] = test system: ABL1 (human), P00519 [Q252H]
# AKT3 (human) = AKT3 (human) (UniProt Q9Y243)
# AURKA (human) = AURKA (human) (UniProt O14965)
# BMX (human) = BMX (human) (UniProt P51813)
# BRSK1 (human) = BRSK1 (human) (UniProt Q8TDC3)
# BTK (human) = BTK (human) (UniProt Q06187)
# CAMK2G (human) = CAMK2G (human) (UniProt Q13555); details: compound 1.0 µM
# CSNK1A1 (human) = CSNK1A1 (human) (UniProt P48729)
# CSNK1D (human) = CSNK1D (human) (UniProt P48730)
# EGFR (human) = EGFR (human) (UniProt P00533)
# FER (human) = FER (human) (UniProt P16591)
# FGFR4 (human) = FGFR4 (human) (UniProt P22455)
# FYN (human) = FYN (human) (UniProt P06241); details: compound 0.1 µM
# IGF1R (human) = IGF1R (human) (UniProt P08069)
# MAPK14 (human) = MAPK14 (human) (UniProt Q16539)
# Chain of MAPK14 (human) (Q16539 whole entry, looked up): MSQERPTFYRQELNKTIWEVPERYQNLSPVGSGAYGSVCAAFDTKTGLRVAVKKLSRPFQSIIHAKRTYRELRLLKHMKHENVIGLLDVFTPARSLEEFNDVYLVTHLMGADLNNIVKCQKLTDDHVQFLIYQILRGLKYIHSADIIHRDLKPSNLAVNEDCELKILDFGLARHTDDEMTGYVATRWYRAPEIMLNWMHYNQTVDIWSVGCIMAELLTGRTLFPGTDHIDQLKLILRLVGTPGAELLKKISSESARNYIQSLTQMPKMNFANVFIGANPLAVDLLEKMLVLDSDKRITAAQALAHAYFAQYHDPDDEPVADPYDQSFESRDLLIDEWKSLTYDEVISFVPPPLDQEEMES
# MAPK3 (human) = MAPK3 (human) (UniProt P27361)
# MAPKAPK2 (human) = MAPKAPK2 (human) (UniProt P49137)
# MARK1 (human) = MARK1 (human) (UniProt Q9P0L2)
# MARK3 (human) = MARK3 (human) (UniProt P27448)
# Chain of MARK3 (human) (P27448 whole entry, looked up): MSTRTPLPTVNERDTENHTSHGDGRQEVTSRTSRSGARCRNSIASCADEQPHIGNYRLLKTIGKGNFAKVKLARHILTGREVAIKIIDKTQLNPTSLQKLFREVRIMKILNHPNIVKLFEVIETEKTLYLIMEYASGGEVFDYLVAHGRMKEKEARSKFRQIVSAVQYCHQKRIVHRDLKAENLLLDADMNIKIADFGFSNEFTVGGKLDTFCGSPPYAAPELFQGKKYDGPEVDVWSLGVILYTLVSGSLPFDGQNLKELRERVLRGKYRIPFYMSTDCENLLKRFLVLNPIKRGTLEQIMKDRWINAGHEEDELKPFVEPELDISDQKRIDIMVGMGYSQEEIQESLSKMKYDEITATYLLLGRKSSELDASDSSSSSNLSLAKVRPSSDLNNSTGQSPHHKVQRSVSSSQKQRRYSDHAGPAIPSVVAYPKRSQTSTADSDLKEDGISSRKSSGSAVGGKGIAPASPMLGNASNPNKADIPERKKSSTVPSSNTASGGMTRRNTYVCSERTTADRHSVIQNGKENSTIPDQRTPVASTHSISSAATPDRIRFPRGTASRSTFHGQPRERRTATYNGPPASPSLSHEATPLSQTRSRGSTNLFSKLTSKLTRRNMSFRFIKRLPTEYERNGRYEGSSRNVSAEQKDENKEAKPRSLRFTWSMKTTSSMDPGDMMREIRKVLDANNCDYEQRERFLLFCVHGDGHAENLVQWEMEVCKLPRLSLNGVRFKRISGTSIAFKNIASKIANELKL
# PRKCA (human) = PRKCA (human) (UniProt P17252)
# PRKCB2 (human) = PRKCB2 (human) (UniProt P05771)
# Chain of PRKCB2 (human) (P05771 whole entry, looked up): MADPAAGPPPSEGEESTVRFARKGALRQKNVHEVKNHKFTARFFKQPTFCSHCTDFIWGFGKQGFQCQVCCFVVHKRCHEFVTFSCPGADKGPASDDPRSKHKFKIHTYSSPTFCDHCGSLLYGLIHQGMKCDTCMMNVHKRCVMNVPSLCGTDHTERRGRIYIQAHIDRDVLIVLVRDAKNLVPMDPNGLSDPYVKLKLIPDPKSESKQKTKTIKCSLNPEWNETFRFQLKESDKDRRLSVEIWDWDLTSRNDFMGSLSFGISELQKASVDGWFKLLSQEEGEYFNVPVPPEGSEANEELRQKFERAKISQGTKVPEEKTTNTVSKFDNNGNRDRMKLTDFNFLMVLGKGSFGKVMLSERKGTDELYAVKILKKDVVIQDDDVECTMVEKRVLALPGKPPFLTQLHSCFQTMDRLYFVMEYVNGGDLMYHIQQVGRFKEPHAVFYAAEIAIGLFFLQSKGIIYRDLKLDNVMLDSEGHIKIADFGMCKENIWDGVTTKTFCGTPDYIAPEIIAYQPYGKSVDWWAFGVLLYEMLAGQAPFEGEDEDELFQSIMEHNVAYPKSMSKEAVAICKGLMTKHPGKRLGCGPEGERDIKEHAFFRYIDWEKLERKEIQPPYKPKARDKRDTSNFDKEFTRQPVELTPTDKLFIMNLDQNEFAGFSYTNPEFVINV
# PRKCG (human) = PRKCG (human) (UniProt P05129)
# PRKCH (human) = PRKCH (human) (UniProt P24723)
# Chain of PRKCH (human) (P24723 whole entry, looked up): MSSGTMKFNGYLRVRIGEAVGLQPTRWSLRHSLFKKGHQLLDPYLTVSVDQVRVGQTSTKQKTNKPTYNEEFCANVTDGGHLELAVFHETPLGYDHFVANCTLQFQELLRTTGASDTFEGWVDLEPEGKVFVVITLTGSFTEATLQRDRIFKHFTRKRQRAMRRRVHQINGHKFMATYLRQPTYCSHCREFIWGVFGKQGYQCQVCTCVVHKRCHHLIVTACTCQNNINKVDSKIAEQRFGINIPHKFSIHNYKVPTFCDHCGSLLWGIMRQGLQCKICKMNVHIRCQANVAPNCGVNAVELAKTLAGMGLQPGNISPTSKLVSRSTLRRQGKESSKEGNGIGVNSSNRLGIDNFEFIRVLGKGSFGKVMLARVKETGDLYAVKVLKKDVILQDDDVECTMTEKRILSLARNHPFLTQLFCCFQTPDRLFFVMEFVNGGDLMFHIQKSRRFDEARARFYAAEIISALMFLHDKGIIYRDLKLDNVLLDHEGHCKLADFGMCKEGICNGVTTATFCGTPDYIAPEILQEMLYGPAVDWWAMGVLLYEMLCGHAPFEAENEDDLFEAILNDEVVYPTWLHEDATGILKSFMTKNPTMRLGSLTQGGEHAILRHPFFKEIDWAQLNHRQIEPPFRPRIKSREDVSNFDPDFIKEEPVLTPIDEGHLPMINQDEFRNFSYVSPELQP
# PRKCQ (human) = PRKCQ (human) (UniProt Q04759)
# PRKCZ (human) = PRKCZ (human) (UniProt Q05513)
# Chain of PRKCZ (human) (Q05513 whole entry, looked up): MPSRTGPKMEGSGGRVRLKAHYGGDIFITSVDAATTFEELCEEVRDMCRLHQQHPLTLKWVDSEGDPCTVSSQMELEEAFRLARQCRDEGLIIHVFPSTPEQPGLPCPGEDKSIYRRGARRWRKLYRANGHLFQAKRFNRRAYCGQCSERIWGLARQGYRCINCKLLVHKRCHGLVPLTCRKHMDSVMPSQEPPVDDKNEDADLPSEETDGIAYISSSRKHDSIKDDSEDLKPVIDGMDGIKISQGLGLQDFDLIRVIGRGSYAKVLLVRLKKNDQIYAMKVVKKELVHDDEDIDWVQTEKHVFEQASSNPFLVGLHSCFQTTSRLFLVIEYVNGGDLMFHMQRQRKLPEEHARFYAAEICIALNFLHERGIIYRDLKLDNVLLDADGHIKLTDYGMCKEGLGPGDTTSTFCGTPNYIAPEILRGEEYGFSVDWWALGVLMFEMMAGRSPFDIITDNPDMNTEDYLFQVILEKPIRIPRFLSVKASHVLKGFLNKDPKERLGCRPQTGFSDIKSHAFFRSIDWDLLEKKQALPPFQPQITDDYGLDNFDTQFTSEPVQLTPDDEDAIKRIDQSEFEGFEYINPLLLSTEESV
# PRKD1 (human) = PRKD1 (human) (UniProt Q15139)
# Chain of PRKD1 (human) (Q15139 whole entry, looked up): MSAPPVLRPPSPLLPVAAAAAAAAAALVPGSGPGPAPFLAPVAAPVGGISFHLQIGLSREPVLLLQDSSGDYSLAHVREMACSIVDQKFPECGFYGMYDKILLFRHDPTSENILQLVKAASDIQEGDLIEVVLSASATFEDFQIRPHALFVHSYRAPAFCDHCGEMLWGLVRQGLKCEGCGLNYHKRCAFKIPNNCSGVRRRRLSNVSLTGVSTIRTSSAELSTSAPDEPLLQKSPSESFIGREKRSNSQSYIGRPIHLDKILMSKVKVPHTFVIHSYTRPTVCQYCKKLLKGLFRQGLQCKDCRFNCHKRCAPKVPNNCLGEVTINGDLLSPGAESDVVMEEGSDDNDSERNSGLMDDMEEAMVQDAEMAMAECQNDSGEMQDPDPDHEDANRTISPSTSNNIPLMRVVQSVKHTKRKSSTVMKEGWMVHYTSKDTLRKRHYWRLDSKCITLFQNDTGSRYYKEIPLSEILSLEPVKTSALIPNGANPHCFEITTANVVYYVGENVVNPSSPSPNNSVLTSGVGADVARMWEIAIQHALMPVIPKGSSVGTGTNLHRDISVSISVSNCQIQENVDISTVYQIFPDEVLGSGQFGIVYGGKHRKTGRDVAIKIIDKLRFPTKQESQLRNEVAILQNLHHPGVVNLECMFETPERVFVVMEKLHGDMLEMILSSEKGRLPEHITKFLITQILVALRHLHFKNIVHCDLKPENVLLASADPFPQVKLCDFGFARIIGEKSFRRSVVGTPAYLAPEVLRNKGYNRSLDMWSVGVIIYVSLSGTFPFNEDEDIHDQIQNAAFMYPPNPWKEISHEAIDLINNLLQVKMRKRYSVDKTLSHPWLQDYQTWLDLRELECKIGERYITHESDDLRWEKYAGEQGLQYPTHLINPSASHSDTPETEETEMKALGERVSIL
# PRKG1 (human) = PRKG1 (human) (UniProt Q13976)
# Chain of PRKG1 (human) (Q13976 whole entry, looked up): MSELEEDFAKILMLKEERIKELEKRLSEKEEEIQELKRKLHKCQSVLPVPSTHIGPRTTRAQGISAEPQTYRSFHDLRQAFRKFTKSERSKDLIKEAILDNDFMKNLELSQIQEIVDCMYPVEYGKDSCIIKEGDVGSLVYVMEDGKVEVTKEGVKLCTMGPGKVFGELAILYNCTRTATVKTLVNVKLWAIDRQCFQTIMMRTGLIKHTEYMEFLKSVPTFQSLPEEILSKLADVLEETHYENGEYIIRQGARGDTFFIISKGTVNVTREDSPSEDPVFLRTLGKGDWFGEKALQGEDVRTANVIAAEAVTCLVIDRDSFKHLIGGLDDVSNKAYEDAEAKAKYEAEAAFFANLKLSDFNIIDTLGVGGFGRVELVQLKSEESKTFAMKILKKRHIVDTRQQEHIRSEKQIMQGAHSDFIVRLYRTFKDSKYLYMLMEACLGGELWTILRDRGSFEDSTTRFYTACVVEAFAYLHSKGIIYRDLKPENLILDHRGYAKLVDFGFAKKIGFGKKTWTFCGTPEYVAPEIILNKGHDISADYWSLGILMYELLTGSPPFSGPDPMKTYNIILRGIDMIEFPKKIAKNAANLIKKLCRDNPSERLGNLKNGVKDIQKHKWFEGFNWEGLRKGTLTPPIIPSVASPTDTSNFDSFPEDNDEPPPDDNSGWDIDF
# RPS6KA4 KD1 KD2 (human) = RPS6KA4 KD1 KD2 (human) (UniProt O75676)
# RPS6KA5 KD1 KD2 (human) = RPS6KA5 KD1 KD2 (human) (UniProt O75582)
# RPS6KB1 (human) = RPS6KB1 (human) (UniProt P23443)
# SGK1 (human) = SGK1 (human) (UniProt O00141)
# SGK2 (human) = SGK2 (human) (UniProt Q9HBY8)
# Chain of SGK2 (human) (Q9HBY8 whole entry, looked up): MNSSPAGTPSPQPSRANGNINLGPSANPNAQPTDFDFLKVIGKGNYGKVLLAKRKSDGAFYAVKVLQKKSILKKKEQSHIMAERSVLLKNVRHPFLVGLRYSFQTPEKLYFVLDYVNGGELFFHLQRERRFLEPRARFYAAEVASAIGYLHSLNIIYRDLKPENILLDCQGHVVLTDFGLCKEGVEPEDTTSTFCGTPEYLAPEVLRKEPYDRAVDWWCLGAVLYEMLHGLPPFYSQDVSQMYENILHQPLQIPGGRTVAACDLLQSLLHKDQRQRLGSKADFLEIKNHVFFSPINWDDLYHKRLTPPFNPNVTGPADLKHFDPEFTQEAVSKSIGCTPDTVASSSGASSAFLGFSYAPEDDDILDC
# SGK3 (human) = SGK3 (human) (UniProt Q96BR1)
smiles,measurement,setting,value
CN(c1ccc2ccc3ncc(-c4cnn(C)c4)cc3c(=O)c2c1)S(=O)(=O)NCc1ccccn1,inhibition,ABL1 (human); compound 0.1 µM,8.2%
same,inhibition,ABL1 (human); compound 1.0 µM,36.3%
same,inhibition,[1]; compound 0.1 µM,6.9%
same,inhibition,[1]; compound 1.0 µM,51.8%
same,inhibition,AKT3 (human); compound 0.1 µM,6.2%
same,inhibition,AKT3 (human); compound 1.0 µM,5.2%
same,inhibition,AURKA (human); compound 0.1 µM,39.7%
same,inhibition,AURKA (human); compound 1.0 µM,87.5%
same,inhibition,BMX (human); compound 0.1 µM,1.8%
same,inhibition,BMX (human); compound 1.0 µM,8%
same,inhibition,BRSK1 (human); compound 0.1 µM,3.3%
same,inhibition,BRSK1 (human); compound 1.0 µM,0.5%
same,inhibition,BTK (human); compound 0.1 µM,4.7%
same,inhibition,BTK (human); compound 1.0 µM,4.9%
same,inhibition,CAMK2G (human),0.4%
same,inhibition,CSNK1A1 (human); compound 0.1 µM,-7.8%
same,inhibition,CSNK1A1 (human); compound 1.0 µM,7.2%
same,inhibition,CSNK1D (human); compound 0.1 µM,3.5%
same,inhibition,CSNK1D (human); compound 1.0 µM,8.9%
same,inhibition,EGFR (human); compound 0.1 µM,-4.8%
same,inhibition,EGFR (human); compound 1.0 µM,7%
same,inhibition,FER (human); compound 0.1 µM,24.1%
same,inhibition,FER (human); compound 1.0 µM,-2.5%
same,inhibition,FGFR4 (human); compound 0.1 µM,8.9%
same,inhibition,FGFR4 (human); compound 1.0 µM,22.4%
same,inhibition,FYN (human),-0.3%
same,inhibition,IGF1R (human); compound 0.1 µM,-12.2%
same,inhibition,IGF1R (human); compound 1.0 µM,-0.8%
same,inhibition,MAPK14 (human); compound 0.1 µM,-4.5%
same,inhibition,MAPK14 (human); compound 1.0 µM,1.9%
same,inhibition,MAPK3 (human); compound 0.1 µM,0.9%
same,inhibition,MAPK3 (human); compound 1.0 µM,-7.3%
same,inhibition,MAPKAPK2 (human); compound 0.1 µM,-0.4%
same,inhibition,MAPKAPK2 (human); compound 1.0 µM,2.9%
same,inhibition,MARK1 (human); compound 0.1 µM,6.6%
same,inhibition,MARK1 (human); compound 1.0 µM,16.4%
same,inhibition,MARK3 (human); compound 0.1 µM,-1.8%
same,inhibition,MARK3 (human); compound 1.0 µM,5.3%
same,inhibition,PRKCA (human); compound 0.1 µM,0.1%
same,inhibition,PRKCA (human); compound 1.0 µM,-10.6%
same,inhibition,PRKCB2 (human); compound 0.1 µM,2.8%
same,inhibition,PRKCB2 (human); compound 1.0 µM,8.1%
same,inhibition,PRKCG (human); compound 0.1 µM,-8.6%
same,inhibition,PRKCG (human); compound 1.0 µM,-6.9%
same,inhibition,PRKCH (human); compound 0.1 µM,10%
same,inhibition,PRKCH (human); compound 1.0 µM,3.2%
same,inhibition,PRKCQ (human); compound 0.1 µM,-2.9%
same,inhibition,PRKCQ (human); compound 1.0 µM,-2%
same,inhibition,PRKCZ (human); compound 0.1 µM,1.7%
same,inhibition,PRKCZ (human); compound 1.0 µM,3.7%
same,inhibition,PRKD1 (human); compound 0.1 µM,-0.4%
same,inhibition,PRKD1 (human); compound 1.0 µM,1.9%
same,inhibition,PRKG1 (human); compound 0.1 µM,8.1% and 4.1%
same,inhibition,PRKG1 (human); compound 1.0 µM,11.8% and 4.9%
same,inhibition,RPS6KA4 KD1 KD2 (human); compound 0.1 µM,-2.2%
same,inhibition,RPS6KA4 KD1 KD2 (human); compound 1.0 µM,7.4%
same,inhibition,RPS6KA5 KD1 KD2 (human); compound 0.1 µM,-3.5%
same,inhibition,RPS6KA5 KD1 KD2 (human); compound 1.0 µM,8.1%
same,inhibition,RPS6KB1 (human); compound 0.1 µM,-1%
same,inhibition,RPS6KB1 (human); compound 1.0 µM,-6.2%
same,inhibition,SGK1 (human); compound 0.1 µM,-0.4%
same,inhibition,SGK1 (human); compound 1.0 µM,6.4%
same,inhibition,SGK2 (human); compound 0.1 µM,1.8%
same,inhibition,SGK2 (human); compound 1.0 µM,3.7%
same,inhibition,SGK3 (human); compound 0.1 µM,-5.3%
same,inhibition,SGK3 (human); compound 1.0 µM,1.1%

# — the kinase profiling compilation of Christmann-Franck et al. (2016)
